Test results published in patent US20230265091A1, “COMPOUNDS WHICH INHIBIT RNA POLYMERASE” (The Johns Hopkins University, priority 2020, published 2023).
Structures can show the parent of a compound that is named as a salt.

Test system: RPA194 (RNA polymerase I, Pol I)
Test: RPA194 destruction / Pol I inhibition, high-content imaging in A375 cells
Type: cell-based
Details: A375 cells treated for 4 hours, top concentration 10 μM; anti-RPA194 immunofluorescence; pIC50 >= 5.02 deemed a Pol I inhibitor
Method: Cell culture: A375 cells (CRL-1619, ATCC) were grown in DMEM (GTBCO) supplemented with […] fetal bovine serum (GIBCO) in 5% CO2 at 37° C.
Cell treatment and Imaging: 18 hours post-seeding in cell carrier black 384-well plates (PerkinElmer) at 15 000 cells/well, A375 cells were treated for 4 hours with a positive control or test compounds (9 serial semi-log dilutions, top concentration 10 μM). Upon treatment A375 cells were (i) fixed for 15 min at RT with 4% of paraformaldehyde, (ii) permeabilized for 20 min at RT with 0.1-0.5% of NP-40, (iii) incubated with primary antibodies at 4° C.: anti-RPA194 (1:1000-1:1250 dilution, sc-48385, Santa Cruz Biotechnology) and anti-gH2Ax (1:5000 dilution, 81299, Abcam or 1:4000, JBW302, Millipore) (iv) incubated for 1 h at RT with Hoechst (1:5000 dilution, H3570, ThermoFisher) and secondary antibodies: anti-mouse-AlexaFluor488 (1:2000 dilution, A11001, ThermoFisher) and anti-rabbit-AlexaFluor647 (1:2000 dilution, A21443, ThermoFisher) or goat anti-mouse AlexaFluor-594 (1:1000 dilution). Images were acquired on an Operetta CLS High-Content Analysis System (PerkinElmer) (40× objective; 9 fields/well) and processed using the Columbus Image Analysis System (PerkinElmer) or by using Molecular Devices ImageXpress Micro XLS High Content Imager and MetaXpress high-content acquisition and analysis software.
In the table below, (+) is associated with a pIC50 5.02 to 5.8; (++) with pIC50 5.8 to 6.3; and plus sing (+++) with a pIC50 above 6.3.

SMILES	Activity Range (pIC50)
O=C(NCC1CCCC(CO)N1)c1cccn2c(=O)c3cc4ccccc4cc3nc12 (centres unmarked) [Compound 101, N-((6-(hydroxymethyl)piperidin-2-yl)methyl)-12-oxo-12H-benzo[g]pyrido[2,1-b]quinazoline-4-carboxamide hydrochloride]	++ ((++) with pIC50 5.8 to 6.3)
O=C(NCC1CCCN1)c1cccn2c(=O)c3cc4ccccc4cc3nc12 (centres unmarked) [Compound 102, 12-oxo-N-(pyrrolidin-2-ylmethyl)-12H-benzo[g]pyrido[2,1-b]quinazoline-4-carboxamide trifluoroacetate]	++ ((++) with pIC50 5.8 to 6.3)
CC(NC(=O)c1cccn2c(=O)c3cc4ccccc4cc3nc12)C1CCCCN1 (centres unmarked) [Compound 103, 12-oxo-N-(1-(piperidin-2-yl)ethyl)-12H-benzo[g]pyrido[2,1-b]quinazoline-4-carboxamide hydrochloride]	++ ((++) with pIC50 5.8 to 6.3)
O=C(NCC1CCCCN1)c1cccn2c(=O)c3cc4ccccc4cc3nc12 (centres unmarked) [Compound 104, 12-oxo-N-(piperidin-2-ylmethyl)-12H-benzo[g]pyrido[2,1-b]quinazoline-4-carboxamide hydrochloride]	++ ((++) with pIC50 5.8 to 6.3)
CCN1CCCCC1CNC(=O)c1cccn2c(=O)c3cc4ccccc4cc3nc12 (centres unmarked) [Compound 105, N-((1-ethylpiperidin-2-yl)methyl)-12-oxo-12H-benzo[g]pyrido[2,1-b]quinazoline-4-carboxamide hydrochloride]	++ ((++) with pIC50 5.8 to 6.3)
CC(C)N1CCCCC1CNC(=O)c1cccn2c(=O)c3cc4ccccc4cc3nc12 (centres unmarked) [Compound 106, N-((1-isopropylpiperidin-2-yl)methyl)-12-oxo-12H-benzo[g]pyrido[2,1-b]quinazoline-4-carboxamide hydrochloride]	+ ((+) is associated with a pIC50 5.02 to 5.8)
CN1CCCC1CNC(=O)c1cccn2c(=O)c3cc4ccccc4cc3nc12 (centres unmarked) [Compound 107, N-((1-methylpyrrolidin-2-yl)methyl)-12-oxo-12H-benzo[g]pyrido[2,1-b]quinazoline-4-carboxamide hydrochloride]	+ ((+) is associated with a pIC50 5.02 to 5.8)
CN1CCOCC1CNC(=O)c1cccn2c(=O)c3cc4ccccc4cc3nc12 (centres unmarked) [Compound 108, N-((4-methylmorpholin-3-yl)methyl)-12-oxo-12H-benzo[g]pyrido[2,1-b]quinazoline-4-carboxamide hydrochloride]	+ ((+) is associated with a pIC50 5.02 to 5.8)
O=C(NCCN1CC[C@H](O)C1)c1cccn2c(=O)c3cc4ccccc4cc3nc12 [Compound 109, (S)-N-(2-(3-hydroxypyrrolidin-1-yl)ethyl)-12-oxo-12H-benzo[g]pyrido[2,1-b]quinazoline-4-carboxamide hydrochloride]	++ ((++) with pIC50 5.8 to 6.3)
O=C(NCCN1CC[C@@H](O)C1)c1cccn2c(=O)c3cc4ccccc4cc3nc12 [Compound 110, (R)-N-(2-(3-hydroxypyrrolidin-1-yl)ethyl)-12-oxo-12H-benzo[g]pyrido[2,1-b]quinazoline-4-carboxamide hydrochloride]	+++ ((+++) with a pIC50 above 6.3)
N#CC1CCN(CCNC(=O)c2cccn3c(=O)c4cc5ccccc5cc4nc23)CC1 [Compound 111, N-(2-(4-cyanopiperidine-1-yl)ethyl)-12-oxo-12H-benzo[g]pyrido[2,1-b]quinazoline-4-carboxamide hydrochloride]	+ ((+) is associated with a pIC50 5.02 to 5.8)
O=C(NCCN1CCSCC1)c1cccn2c(=O)c3cc4ccccc4cc3nc12 [Compound 112, 12-oxo-N-(2-thiomorpholinoethyl)-12H-benzo[g]pyrido[2,1-b]quinazoline-4-carboxamide hydrochloride]	+ ((+) is associated with a pIC50 5.02 to 5.8)
O=C(NCCN1CCC(O)(O)CC1)c1cccn2c(=O)c3cc4ccccc4cc3nc12 [Compound 113, N-(2-(4,4-dihydroxypiperidin-1-yl)ethyl)-12-oxo-12H-benzo[g]pyrido[2,1-b]quinazoline-4-carboxamide hydrochloride]	++ ((++) with pIC50 5.8 to 6.3)
CN(CCC#N)CCNC(=O)c1cccn2c(=O)c3cc4ccccc4cc3nc12 [Compound 114, N-(2-((2-cyanoethyl)(methyl)amino)ethyl)-12-oxo-12H-benzo[g]pyrido[2,1-b]quinazoline-4-carboxamide hydrochloride]	+ ((+) is associated with a pIC50 5.02 to 5.8)
COC(=O)N1CCN(CCNC(=O)c2cccn3c(=O)c4cc5ccccc5cc4nc23)CC1 [Compound 115, methyl 4-(2-(12-oxo-12H-benzo[g]pyrido[2,1-b]quinazoline-4-carboxamido)ethyl)piperazine-1-carboxylate hydrochloride]	+ ((+) is associated with a pIC50 5.02 to 5.8)
O=C(NCCN1CCC(F)CC1)c1cccn2c(=O)c3cc4ccccc4cc3nc12 [Compound 116, N-(2-(4-fluoropiperidin-1-yl)ethyl)-12-oxo-12H-benzo[g]pyrido[2,1-b]quinazoline-4 carboxamide hydrochloride]	++ ((++) with pIC50 5.8 to 6.3)
O=C(NCCN1CCC(F)C1)c1cccn2c(=O)c3cc4ccccc4cc3nc12 (centres unmarked) [Compound 117, N-(2-(3-fluoropyrrolidin-1-yl)ethyl)-12-oxo-12H-benzo[g]pyrido[2,1-b]quinazoline-4-carboxamide hydrochloride]	+ ((+) is associated with a pIC50 5.02 to 5.8)
